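The compound was tested at five concentrations on cells cultured in 96-well plates, with a 48-hour exposure period. GI50 = concentration required for 50% inhibition of growth. TGI is the concentration that stops growth completely.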
Columns and labels:
Test in all cases: NCI tumour cell line growth inhibition, 48 h
[1] = test system: DU-145 prostate
[2] = test system: NCI-H226 lung
[3] = test system: UACC-257 melanoma
[4] = test system: HT29 colon
[5] = test system: ACHN renal
[6] = test system: NCI-H23 lung
[7] = test system: SF-539 CNS
[8] = test system: MOLT-4 leukemia

Row | SMILES | GI50 [1] [nM] | TGI [1] [µM] | GI50 [2] [nM] | TGI [2] [µM] | GI50 [3] [nM] | TGI [3] [µM] | GI50 [4] [nM] | TGI [4] [µM] | GI50 [5] [nM] | TGI [5] [µM] | GI50 [6] [nM] | TGI [6] [µM] | GI50 [7] [nM] | TGI [7] [µM] | GI50 [8] [nM] | TGI [8] [µM]
1 | Cc1ncc(C(=O)Nc2ccc(CN3CCN(C)CC3)c(C(F)(F)F)c2)cc1C#Cc1c(N)ncc2ccc(C#N)cc12 | 976 | 7.43 | 451 | 2.3 | 473 | 10.5 | 29.3 | 7.74 | 293 | 3.35 | 936 | 8.58 | 1140 | 8.06 | 1030 | 19.4
2 | CCOC(=O)C(C(=O)c1ccccc1-c1ccccc1C(=O)O)=P(c1ccccc1)(c1ccccc1)c1ccccc1 |  |  |  | 73.7 |  | 76.4 |  | > 100 |  | > 100 |  | 40 |  | 35.3 |  | 79
3 | CCOP1(=O)OCC2OC(n3cnc4c(N)ncnc43)C(O)C2O1 (stereo not given) |  | > 100 |  | > 100 |  | > 100 |  | > 100 |  | > 100 |  |  |  | > 100 |  | > 100
4 | Cc1c2c(n3c(nc4ccccc43)c1C#N)SCC2 |  | > 10 |  | > 10 |  | > 10 |  | > 10 |  | > 10 |  | > 10 |  | > 10 |  | > 10
5 | CCCCc1ccc2nc(NC(=O)OC)[nH]c2c1 | 40.6 | 0.278 | 42.9 | 3.32 |  |  | 37.7 |  | 77 | > 64.4 | 142 | > 100 | 36.6 | 0.294 | 38.2 | > 100
6 | CCOC(=O)c1cnc2ccc(Cl)cc2c1NCCCN(C)C | 25500 | 76.3 | 19900 | 92.2 | 17300 | 34.9 | 14100 | 52.6 | 9850 | > 100 | 32700 | > 100 | 17400 | 41.5 | 16300 | 63.5
7 | C1=C[C@@H]2c3ccc4cnccc4c3NC[C@@H]2C1 |  | > 100 |  | > 100 |  | > 100 |  |  |  | > 100 |  | > 100 |  | > 100 |  | > 100
8 | Cc1nc2c(cnn2-c2ccnc3c(C(F)(F)F)cccc23)c(=O)o1 | > 100000 | > 100 | > 100000 | > 100 | > 100000 | > 100 | > 100000 | > 100 | > 100000 | > 100 | > 100000 | > 100 | > 100000 | > 100 | > 100000 | > 100
9 | COC1CC(OC2OC(CO)C(O)C(O)C2O)/C(=C\C#N)C(O)C1OC (stereo not given) |  | > 100 |  | > 100 |  | > 100 |  | > 100 |  | > 100 |  | > 100 |  | > 100 |  | > 100
10 | C=C1C(=O)O[C@@H]2[C@@H]3O[C@@](C)(CC/C=C(\C)CCC[C@@H]2C)[C@H](O)C[C@@H]13 |  | 19.4 | 12500 | 26.3 | 1290 | 4.27 | 2410 | 6.71 | 1590 | 3.11 | 3710 | 16.5 | 2700 | 8.9 | 2750 | 7.64
11 | COc1cc(-c2cc(-c3ccc(N(C)C)cc3)nc(N3CCC(O)CC3)c2C#N)cc(OC)c1OC | 853 | > 79.6 | 717 |  | 300 | 0.969 | 272 | 1.43 | 478 | > 100 | 1350 | 6.74 | 820 | 3.24 | 706 | 10.7
12 | Cc1cc(Cl)n2c(nc3ccccc32)c1C#N | 339 | 1.2 | 1540 | 10 | 727 | 4.8 |  |  | 567 | 1.84 | 422 | 2.55 | 576 | 7.86 | 1060 | 22.8
13 | Cn1cc(-c2ccc3cc(-c4ccc(CC(=O)Nc5cc(C(C)(C)C)nn5C)cc4)cnc3c2)cn1 | 170 | > 100 | 317 | > 100 | 425 | > 100 | 377 | > 100 | 110 | > 100 | 407 | > 100 | 112 | 12.4 | 282 | > 100
14 | COc1ccc(C2SC(N)=Nc3c2c(C)nn3C(=O)c2ccncc2)cc1 (stereo not given) |  | > 100 |  | > 100 |  | > 100 |  | > 100 |  | > 100 |  | > 100 |  | > 100 |  | > 100
15 | O=C(CC1Sc2ccccc2NC1=O)Nc1cccc(Cl)c1 (stereo not given) |  |  |  | 90.8 |  | > 100 |  | > 100 |  | > 100 |  | > 100 |  | > 100 |  | 57.2
16 | Nc1nc2nc3c(nc2c(=O)[nH]1)CN(c1ccc(C(=O)O)cc1)C3=O |  | > 100 |  | > 100 |  | > 100 |  | > 100 |  | > 100 |  | > 100 |  | > 100 |  | 
17 | Clc1ccc(Cl)c(N/N=C\c2c[nH]c3ccccc23)c1 | 10700 | 22.6 | 7990 | 34.3 | 15200 | 28.9 |  |  | 12000 | 32.6 | 14100 | 29.9 | 8160 | 21 | 293 | 11.8
18 | COc1ccc(C(=O)/C=C/c2ccc(Cl)cc2)cc1S(N)(=O)=O | 3430 | 13.2 | 3660 | 14.8 | 12200 | 24.9 | 3270 | 10.5 | 1940 | 4.12 | 2540 | 7.06 | 1600 | 3.3 | 2930 | 9.16

— PubChem BioAssay (NCI)
